The test system of the data set is rodent carcinogenicity bioassays, tumor incidence. Briefly: CCRIS carcinogenicity studies. In short, it runs like this:
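NCI-built, expert-reviewed records of carcinogenicity and related test outcomes (mutagenicity, tumor promotion/inhibition) compiled from published and report sources, historical span 1985-2011, not updated.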

The text below walks through data of PubChem BioAssay AID1259411 (Chemical Carcinogenesis Research Information System (CCRIS), 2018).

Calls of active or inactive are those of the source. How the calls were made is not given here.

With `Nc1cc(Cl)ccc1O`, the carcinogen call is, setting by setting: (Species: Rat, Strain/Sex: F344/DuCrlCrlj / Female, Route: Oral, Dose: 0, 1280, 3200, 8000 ppm in diet for 2 yr study duration, Dose: 0, 1280, 3200, 8000 ppm in diet for 2 yr study duration, Tumor Site: Type of Lesion: Forestomach: squamous cell papilloma/carcinoma) “active; positive”; (Species: Rat, Strain/Sex: F344/DuCrlCrlj / Male, Route: Oral, Dose: 0, 1280, 3200, 8000 ppm in diet for 2 yr study duration, Dose: 0, 1280, 3200, 8000 ppm in diet for 2 yr study duration, Tumor Site: Type of Lesion: Forestomach: squamous cell papilloma/carcinoma. Urinary bladder: papilloma/carcinoma) “active; positive”.

Consider `O=C1[C@H]2CC=CC[C@H]2C(=O)N1SC(Cl)(Cl)Cl`, for which the carcinogen call is “active; positive” (Species: MOUSE, Strain/Sex: B6C3F1/MALE, Route: ORAL, Dose: 0, 8000, 16000 PPM IN DIET, Dose: 0, 8000, 16000 PPM IN DIET, Tumor Site: Type of Lesion: DUODENUM: ADENOMATOUS POLYP (NOS) OR ADENOCARCINOMA IN ADENOMATOUS POLYP); “inactive; negative” (Species: MOUSE, Strain/Sex: SWISS/FEMALE, Route: DERMAL, Dose: 0, 450 UG IN 200 µL DMSO 3/WK FOR 52 WK (STUDY DURATION: 52 WK)); “inactive; negative (purity of 90.7%; study details not given in source)” (Species: Mouse, Strain/Sex: Swiss CD-1/Female (80/dose), Route: Oral, Dose: 0, 2000/6000, 6000/10,000, 10,000/16,000 ppm in diet for 113 wk (lower dose first 4 wk, higher dose for remainder of stu, Dose: 0, 2000/6000, 6000/10,000, 10,000/16,000 ppm in diet for 113 wk (lower dose first 4 wk, higher dose for remainder of stu); “active; positive (10,000 ppm group) (purity of 90.7%; study details n ot given in source” (Species: Mouse, Strain/Sex: Swiss CD-1/Male (80/dose), Route: Oral, Dose: 0, 2000/6000, 6000/10,000, 10,000/16,000 ppm in diet for 113 wk (lower dose first 4 wk, higher dose for remainder of stu, Dose: 0, 2000/6000, 6000/10,000, 10,000/16,000 ppm in diet for 113 wk (lower dose first 4 wk, higher dose for remainder of stu, Tumor Site: Type of Lesion: INTESTINE: Adenomas and adenocarcinomas in jejunum); “inactive; negative” (Species: RAT, Strain/Sex: OSBORNE-MENDEL/FEMALE, Route: ORAL, Dose: 0, 2525, 6060 PPM IN DIET, TWA, Dose: 0, 2525, 6060 PPM IN DIET, TWA); “inactive; negative” (Species: RAT, Strain/Sex: OSBORNE-MENDEL/MALE, Route: ORAL, Dose: 0, 2525, 6060 PPM IN DIET, TWA, Dose: 0, 2525, 6060 PPM IN DIET, TWA). Besides, the carcinogen call (Species: Rat, Strain/Sex: CD/Female (50/group), Route: Oral, Dose: 0, 25, 100, 250 mg/kg/day in diet for 2 yr, Dose: 0, 25, 100, 250 mg/kg/day in diet for 2 yr) is “inactive; negative (purity of 89%; study details not given in source)” and the carcinogen call (Species: Rat, Strain/Sex: CD/Male (50/group), Route: Oral, Dose: 0, 25, 100, 250 mg/kg/day in diet for 2 yr, Dose: 0, 25, 100, 250 mg/kg/day in diet for 2 yr, Tumor Site: Type of Lesion: KIDNEY: Renal tubular adenomas or carcinomas (1, 1, 3, 4)) is “active; positive (purity of 89%; study details not given in source)”.

As to `[O-][Cl+]O`, the carcinogen call is, setting by setting: (Species: RAT, Strain/Sex: F344/FEMALE, Route: ORAL, Dose: 0, 0.03, 0.06% IN DRINKING WATER FOR 85 WK (STUDY DURATION: 85 WK), Dose: 0, 0.03, 0.06% IN DRINKING WATER FOR 85 WK (STUDY DURATION: 85 WK)) “inactive; negative”; (Species: RAT, Strain/Sex: F344/MALE, Route: ORAL, Dose: 0, 0.03, 0.06% IN DRINKING WATER FOR 85 WK (STUDY DURATION: 85 WK), Dose: 0, 0.03, 0.06% IN DRINKING WATER FOR 85 WK (STUDY DURATION: 85 WK)) “inactive; negative”.

For the compound `CC[C@H](C)[C@H]1O[C@]2(C=C[C@@H]1C)C[C@@H]1C[C@@H](C/C=C(\C)[C@@H](O[C@H]3C[C@H](OC)[C@@H](O[C@H]4C[C@H](OC)[C@@H](NC)[C@H](C)O4)[C@H](C)O3)[C@@H](C)/C=C/C=C3\CO[C@@H]4[C@H](O)C(C)=C[C@@H](C(=O)O1)[C@]34O)O2`, the carcinogen call reads like this: (Species: Mouse, Strain/Sex: Strain not specified/Female (50/Group), Route: Oral, Dose: 0, 0.5, 2.5, 12.5 (lowered to 7.5 at wk 48) mg/kg/day in the diet for 79 wk, study duration 79 wk, Dose: 0, 0.5, 2.5, 12.5 (lowered to 7.5 at wk 48) mg/kg/day in the diet for 79 wk, study duration 79 wk) “inactive; negative”; (Species: Mouse, Strain/Sex: Strain not specified/Male (50/Group), Route: Oral, Dose: 0, 0.5, 2.5, 12.5 (lowered to 7.5 at wk 9 and to 5 at wk 31) mg/kg/day in the diet for 79 wk, study duration 79 wk, Dose: 0, 0.5, 2.5, 12.5 (lowered to 7.5 at wk 9 and to 5 at wk 31) mg/kg/day in the diet for 79 wk, study duration 79 wk) “inactive; negative”; (Species: Rat, Strain/Sex: Strain not specified/Female (65/Group), Route: Oral, Dose: 0, 0.25, 1, 5 (lowered to 2.5 at wk 10) mg/kg/day in the diet for 105 wk, study duration 105 wk, Dose: 0, 0.25, 1, 5 (lowered to 2.5 at wk 10) mg/kg/day in the diet for 105 wk, study duration 105 wk) “inactive; negative”; (Species: Rat, Strain/Sex: Strain not specified/Male (65/Group), Route: Oral, Dose: 0, 0.25, 1, 5 (lowered to 2.5 at wk 6) mg/kg/day in the diet for 105 wk, study duration 105 wk, Dose: 0, 0.25, 1, 5 (lowered to 2.5 at wk 6) mg/kg/day in the diet for 105 wk, study duration 105 wk) “inactive; negative”.

Take `CN(C)c1ccc(C(=N)c2ccc(N(C)C)cc2)cc1`: the carcinogen call by setting is: (Species: HUMAN, Route: ORAL, INHALATION, DERMAL, Tumor Site: Type of Lesion: URINARY BLADDER) “active; positive”; (Species: MOUSE, Route: ORAL, Tumor Site: Type of Lesion: LIVER, LYMPHATIC SYSTEM: LYMPHOMA) “active; positive”; (Species: RAT, Route: ORAL, Tumor Site: Type of Lesion: LIVER) “active; positive”; (Species: RAT, Route: SUBCUTANEOUS, Tumor Site: Type of Lesion: INJECTION SITE) “active; positive”.

`[Ga]#[As]`: the carcinogen call reads like this: (Species: MOUSE, Strain/Sex: B6C3F1/FEMALE, Route: INHALATION, Dose: 0, 0.1, 0.5, 1 MG/M3 6 HR/D 5D/WK FOR 106 WK (STUDY DURATION: 106 WK), Dose: 0, 0.1, 0.5, 1 MG/M3 6 HR/D 5D/WK FOR 106 WK (STUDY DURATION: 106 WK)) “inactive; negative”; (Species: MOUSE, Strain/Sex: B6C3F1/MALE, Route: INHALATION, Dose: 0, 0.1, 0.5, 1 MG/M3 6 HR/D 5D/WK FOR 105 WK (STUDY DURATION: 105 WK), Dose: 0, 0.1, 0.5, 1 MG/M3 6 HR/D 5D/WK FOR 105 WK (STUDY DURATION: 105 WK)) “inactive; negative”; (Species: MOUSE, Strain/Sex: ICR/MALE, Route: INTRAPERITONEAL, Dose: 0, 48, 480 MG/KG AS GALLIUM SUSPENDED IN OLIVE OIL ONCE (STUDY DURATION: 18 MO), Dose: 0, 48, 480 MG/KG AS GALLIUM SUSPENDED IN OLIVE OIL ONCE (STUDY DURATION: 18 MO)) “inactive; negative”; (Species: MOUSE, Strain/Sex: ICR/MALE, Route: SUBCUTANEOUS, Dose: 0, 48, 480 MG/KG AS GALLIUM SUSPENDED IN OLIVE OIL ONCE (STUDY DURATION: 18 MO), Dose: 0, 48, 480 MG/KG AS GALLIUM SUSPENDED IN OLIVE OIL ONCE (STUDY DURATION: 18 MO)) “inactive; negative”; (Species: RAT, Strain/Sex: F344/N/FEMALE, Route: INHALATION, Dose: 0, 0.01, 0.1, 1 MG/M3 6 HR/D 5D/WK FOR 105 WK (STUDY DURATION: 105 WK), Dose: 0, 0.01, 0.1, 1 MG/M3 6 HR/D 5D/WK FOR 105 WK (STUDY DURATION: 105 WK), Tumor Site: Type of Lesion: LUNG: ALVEOLAR/BRONCHIOLAR ADENOMA) “active; positive”; (Species: RAT, Strain/Sex: F344/N/MALE, Route: INHALATION, Dose: 0, 0.01, 0.1, 1 MG/M3 6 HR/D 5D/WK FOR 105 WK (STUDY DURATION: 105 WK), Dose: 0, 0.01, 0.1, 1 MG/M3 6 HR/D 5D/WK FOR 105 WK (STUDY DURATION: 105 WK)) “inactive; negative”.

With `CC(=O)Nc1ccc(-c2ccc(NC(C)=O)cc2)cc1`, the carcinogen call by setting is: (Species: RAT, Route: INTRAPERITONEAL, Tumor Site: Type of Lesion: EAR (CANAL), MAMMARY GLAND, INTEGUMENTARY SYSTEM (SKIN), Tumor Site: Type of Lesion: EAR (CANAL), MAMMARY GLAND, INTEGUMENTARY SYSTEM (SKIN)) “active; positive”; (Species: RAT, Route: ORAL, Tumor Site: Type of Lesion: EAR (CANAL)) “active; positive”; (Species: RAT, Route: SUBCUTANEOUS, Tumor Site: Type of Lesion: MAMMARY GLAND, LIVER, EAR (ZYMBAL GLAND), Tumor Site: Type of Lesion: MAMMARY GLAND, LIVER, EAR (ZYMBAL GLAND)) “active; positive”.

For `O=[N+]([O-])c1ccc(/C=C/c2cnc(N(CO)CO)nn2)o1`, under “Species: RAT, Strain/Sex: WISTAR/MALE, Route: ORAL, Dose: 0, 350, 1750, 3500 PPM IN POWDERED BASAL DIET (STUDY DURATION: 35 WK), Dose: 0, 350, 1750, 3500 PPM IN POWDERED BASAL DIET (STUDY DURATION: 35 WK), Tumor Site: Type of Lesion: FORESTOMACH, SQUAMOUS CELL PAPILLOMA, DUODENUM: ADENOCARCINOMA, SMALL INTESTINE: ADENOCARCINOMA, Tumor Site: Type of Lesion: FORESTOMACH, SQUAMOUS CELL PAPILLOMA, DUODENUM: ADENOCARCINOMA, SMALL INTESTINE: ADENOCARCINOMA”, the carcinogen call is “active; positive”.
